Measured values published in article PMC11477209, “Toxicological Evaluation of Kaempferol and Linearolactone as Treatments for Amoebic Liver Abscess Development in Mesocricetus auratus” (International Journal of Molecular Sciences, 2024).
≈ marks a conversion by molar mass, not a printed value.

Legend:
CHO-K1 cells = assay: MTT cytotoxicity assay; assay type: cell-based, Chinese hamster
BEAS-2B cells = assay: MTT cytotoxicity assay; assay type: cell-based, human; conditions: 24 h
[1] = test system: E. histolytica trophozoites; assay: Cell morphology by confocal microscopy (actin); assay type: cell-based, Entamoeba histolytica; conditions: phalloidin-rhodamine, treatment with IC50
Description: Then, the culture medium was removed, and the adhered cells were fixed with 4% paraformaldehyde for 1 h at 37 °C. The samples were washed three times with 1× PBS and incubated with 1:50 phalloidin–rhodamine (R415, Invitrogen; Carlsbad, CA, USA) for 1 h at 37 °C. Finally, the cells were washed, mounted with VectaShield/DAPI medium (Vector Laboratories; Newark, CA, USA), and observed with a confocal microscope (LSM-700, Zeiss; Oberkochen, Germany).

[2] = test system: E. histolytica trophozoites (amoebic liver abscess); assay: Amoebic liver abscess (ALA) model, antiparasitic protocol; assay type: in vivo, Mesocricetus auratus
From the text: M. auratus was used as an animal model because the hamster is naturally susceptible to infection by E. histolytica and can develop amoebic colitis or extraintestinal complications such as an ALA [71]. In this context, the hamster can be used to search for new alternative therapeutic agents against amoebiasis. The hamsters were acquired from Charles River Laboratories Inc. (Wilmington, MA, USA) in 2017 by Centro de Investigación y de Estudios Avanzados del Instituto Politécnico Nacional ([…]-IPN). […] Male hamsters (sexually mature and homozygous) weighing 95 ± 5 g and ≈10 weeks old were selected for the experiments. They were maintained in aseptic conditions at 25 ± 1 °C, 50 ± 3% humidity, a 12 h photoperiod, and ad libitum access to a standard diet (LabDiet; Richmond, IN, USA) and water (Figure 5A). The hamsters were housed in polycarbonate boxes (five per box), with an American Iron and Steel Institute (AISI) lid and wood shavings as bedding, in a controlled room of the Animal Production and Experimentation Unit (UPEAL) from […]-IPN (Figure 5A). Additionally, the health state of the hamsters and their adaptation to the new laboratory conditions were evaluated for 15 days to decrease their stress and anxiety levels. This study was carried out according to the Official Mexican Regulations (NOM-062-ZOO-1999) and NC3Rs ARRIVE [60, 72]. The protocol was approved by the Institutional Animal Care and Use Committee (Reg. No. 0183-16). Finally, the hamsters were not subjected to any previous experimental procedure or any additional treatment before beginning the experimental procedures (see File S1, NC3Rs ARRIVE Guidelines Checklist). Compounds that are prohibited and/or not recommended for use in animals by the American Veterinary Medical Association (Guidelines for the Euthanasia of Animals) were not used.
These experiments were performed with three independent biological replicates. For each replicate, twenty-five hamsters were randomly distributed (simple type) into five experimental groups (five animals per group). The sample size was determined based on the Organization for Economic Cooperation and Development (OECD) recommendations that establish the minimum number of individuals required for the tests so as not to sacrifice animals unnecessarily. Laparotomy was performed in aseptic conditions by using depilation, iodine solution, as well as sterile field cloths. Subsequently, an intra-hepatic puncture was made to deliver 1.5 × 10^6 virulent E. histolytica trophozoites in 100 μL of 1× PBS into the left hepatic lobe for ALA induction (Figure 5A-3). The injection site was immediately covered by applying a gel foam pad to maintain hemostasis. The abdominal layers were sutured discontinuously by single vertical stitches using Vicryl synthetic absorbable suture with a triangular pointed half circle needle. Irregular edges or folds in the surgical wound were eliminated to avoid tissue devitalization or possible infections. The development of a hepatic ALA was monitored for 4 days (Figure 5A-4).
(Figure 5B). The compounds were administered by the i.p. route because the peritoneal cavity presents rapid fluid absorption into the bloodstream, and initial biotransformation by the gastrointestinal tract is avoided. […] The hamsters were evaluated 24 h post-treatment to detect any signs of discomfort/pain or toxicity. The humane endpoint criteria used in this study were >20% body weight loss overnight, cachexia, recumbence, lethargy, respiratory distress, inability to reach food and water, lack of grooming, and ulceration around the surgical site, among others. Additionally, the weight of hamsters was determined at the beginning and end of the experiment with an electronic bascule (CS200, Ohaus; Parsippany, NJ, USA), and the ALA volume was calculated based on imaging (Figure 5B-1). […]

[3] = Paraclinical analysis (serum biochemistry, hematic biometry) in ALA hamsters; assay type: in vivo, Mesocricetus auratus
Description: Serum was obtained by centrifugation at 3500 rpm and frozen at −70 °C until analysis. Hematic biometry was performed in a hematology autoanalyzer system (BC-2300, Mindray; Shenzhen, China), and biochemical parameters were made on an automatic medical system (Prestige 24i, Tokyo Boeki; Kanagawa, Japan).

[4] = in vivo
Description: After blood samples were obtained, the hamsters were sacrificed with a lethal dose of sodium pentobarbital, followed by a cervical fracture. They were mounted on a dissecting board for the necropsy. A complete mid-laparotomy was performed to remove the lungs, spleen, heart, liver, and kidneys. An excisional biopsy was performed to recover the ALA lesions for morphometric analysis. The organs and ALA lesions were rinsed with 1× PBS, weighed, and adherent tissue was removed. […] Later, the inclusion protocol was performed to obtain histological sections (3 μm thick) with a rotatory microtome (RM2125-RTS, Leica; Wetzlar, Germany). Tissue slices were stained with hematoxylin-eosin (Merck; Rahway, NJ, USA), mounted on coverslips with Entellan^TM-New (Merck; Rahway, NJ, USA), and observed with optical microscopy (Eclipse 80i, Nikon; Tokio, Japan).

[5] = test system: E. histolytica trophozoites (virulent HM-1 strain); conditions: 48 h
[6] = test system: E. histolytica trophozoites; conditions: 48 h; ref [10]; read-out: IC50 E. histolytica trophozoites; cited from earlier work
[7] = test system: E. histolytica trophozoites (virulent HM-1 strain); assay: microbe, parasite or virus in culture; conditions: Entamoeba histolytica, 48 h, read-out: IC50 HM-1, 48 h, flow cytometry
[8] = MTZ 0.16, KP 31.6, LL 15.6 μg/mL

SMILES: O=c1c(O)c(-c2ccc(O)cc2)oc2cc(O)cc(O)c12 [KP]
- biological activity symbol on IC50 CHO-K1 (CHO-K1 cells; 24 h, MTT): +/-
- IC50 (CHO-K1 cells; Cricetulus griseus, CHO-K1, 24 h, read-out: IC50 CHO-K1): 70 µg/mL (≈ 245 µM)
- biological activity symbol on IC50 BEAS-2B (BEAS-2B cells): +/-
- IC50 (BEAS-2B cells; Homo sapiens, BEAS-2B): 100 µg/mL (≈ 349 µM)
- actin cytoskeleton alteration [1]: disorganized actin microfilaments
- Edges ([2]; ALA characteristics): Irregular and poorly defined
- Leukocyte infiltrate ([2]; ALA characteristics): +/−
- Liquid ([2]; ALA characteristics): +/−
- Morphology ([2]; ALA characteristics): Ovoid
- ALA Volume ([2]; MRI, i.p. 4 days): 738 ± 150 * mm^3
- MRI T1 signal of ALA ([2]; T1): Intermediate intensity
- MRI T2 signal of ALA ([2]; T2): hypointense
- ALA Weight ([2]; i.p. 4 days, KP 5, LL 10, MTZ 10 mg/kg/day): 0.86 ± 0.15 g
- Erythrocytes ([3]; blood, ALA hamsters, i.p. 4 days): 6.8 ± 0.3 x10 6/mm3
- Band neutrophils ([3]; in vivo): 2 ± 1%
- Basophils ([3]; in vivo): 0%
- Eosinophils ([3]; in vivo): 0%
- Immature forms ([3]; in vivo): 0%
- Lymphocytes ([3]; in vivo): 39 ± 12%
- Monocytes ([3]; in vivo): 0%
- Segmented neutrophils ([3]; in vivo): 60 ± 11%
- ALT (GPT) ([3]; in vivo, ip): 60 ± 10 U/L
- Albumin ([3]; in vivo, ip): 1.7 ± 0.2 g/dL
- Alkaline phosphatase ([3]; in vivo, ip): 349 ± 38 U/L
- Cholesterol ([3]; in vivo, ip): 164 ± 43 mg/dL
- Creatinine ([3]; in vivo, ip): 0.45 ± 0.1 mg/dL
- Direct bilirubin ([3]; in vivo, ip): 0.37 ± 0.07 mg/dL
- GGT ([3]; in vivo, ip): 9.3 ± 5.5 U/L
- Glucose ([3]; in vivo, ip): 152 ± 11 mg/dL
- Hematocrit ([3]; in vivo, ip): 48.8 ± 0.5%
- Hemoglobin ([3]; in vivo, ip): 16.5 ± 0.2 g/dL
- Indirect bilirubin ([3]; in vivo, ip): 0.01 ± 0.0 mg/dL
- MCH ([3]; in vivo, ip): 24 ± 0.7 pg
- MCHC ([3]; in vivo, ip): 33 ± 0.1 g/dL
- MCV ([3]; in vivo, ip): 72 ± 2.3 fL
- MPV ([3]; in vivo, ip): 7.25 ± 0.5 fL
- PCT ([3]; in vivo, ip): 0.4 ± 0.2%
- PDW ([3]; in vivo, ip): 9.15 ± 1.2 fL
- Platelets ([3]; in vivo, ip): 537 ± 266 x106/μL
- RDW-SD ([3]; in vivo, ip): 42.4 ± 0.3 fL
- Total bilirubin ([3]; in vivo, ip): 0.38 ± 0.07 mg/dL
- Total protein ([3]; in vivo, ip): 5.2 ± 0.2 g/dL
- Triglycerides ([3]; in vivo, ip): 475 ± 28 mg/dL
- Urea ([3]; in vivo, ip): 41.6 ± 4 mg/dL
- leukocytes (mild leukocytosis) ([3]; in vivo, ip): 14,800 ± 700 /mm^3
- Heart largest diameter [4]: 1.06 ± 0.08 cm
- Heart weight [4]: 0.38 ± 0.1 g
- Kidneys largest diameter [4]: 1.2 ± 0.1 cm
- Kidneys weight [4]: 0.49 ± 0.04 g
- Liver largest diameter [4]: 3.88 ± 0.11 cm
- Liver weight [4]: 5.9 ± 0.8 g
- Lungs largest diameter [4]: 2.5 ± 0.05 cm
- Lungs weight [4]: 0.74 ± 0.06 g
- Spleen largest diameter [4]: 3.7 ± 0.1 cm
- Spleen weight [4]: 0.36 ± 0.05 g
- biological activity symbol on IC50 HM-1 [5]: +
- apoptotic trophozoites [5, 8]: 8.2%
- necrotic trophozoites [5, 8]: 45.2%
- decrease of size and granularity of the cell population ([5]; MTZ 0.16, KP 31.6, LL 15.6 μg/mL, vs Vh): 55%
- Survival rate (ALA hamsters, i.p. 4 days): 100%
- Toxicity signs (in vivo, ip): None
- IC50 [6]: 27.7 µM
- IC50 [7]: 31.6 µg/mL (≈ 110 µM)
